From ChEMBL document CHEMBL1122422, “Resolution of etodolac and antiinflammatory and prostaglandin synthetase inhibiting properties of the enantiomers” (J Med Chem, 1983)

Species: Ovis aries
Test: Effect of compound (400 uM) on biosynthesis of prostaglandins from tritiated arachidonic acid was evaluated in vitro; NE = No effect at the given concentration
Format: functional

Compound: CCc1cccc2c3c([nH]c12)C(CC)(CC(=O)O)OCC3 (single isomer, unassigned; (-))
- Activity: No effect
